The nature of series [1]: Rat pharmacokinetic study (plasma). Type of series: in vivo, male SD rats. To be noted: IV 1 mg/kg. The procedure:
The rat pharmacokinetics studies of exemplary compounds 03-3, 03-5, and 03-115 were conducted with male SD rats. These rats were typically about 6-8 weeks old, weighing 200 g to 300 g. Animals were fasted overnight and free access to food 4 hours after dosing. A required volume of vehicle was added to reach the target concentration of the test article and vehicle component to prepare for the dosing. The dosing vehicle was PEG400 or 30% PEG400 in saline for IV, or 0.5% methylcellulose in water for PO. For IV dosing, the animals were administered intravenously via tail vein. For PO dosing, the animals were administered via oral gavage. After dosing, blood sample was collected (˜0.2 mL per time point) through jugular vein or heart puncture. Blood of each sample was transferred into plastic micro centrifuge tubes containing EDTA-K2. Collection tubes with blood samples and anticoagulant were inverted several times for proper mixing of the tube contents and then placed on wet ice. The blood samples were centrifuged at 2000 g for 5 minutes at 4° C. to obtain plasma which was stored in a freezer at −75±15° C. prior to analysis. Samples were analyzed using LC-MS/MS. WinNonlin were used for pharmacokinetic calculations.

The nature of series [2]: Microsomal stability (rat). The format is in vitro ADME. As to conditions: rat liver microsomes 0.5 mg/mL; read-out: Microsomal stability (in vitro CLint), Rat. The procedure: (§1) The master solution was prepared as follows.
(§2) Two separate experiments were performed as follows:
(§3) With NADPH: 10 μL of 20 mg/mL liver microsomes and 40 μL of 10 mM NADPH were added to the incubations. The final concentrations of microsomes and NADPH were 0.5 mg/mL and 1 mM, respectively.
(§4) Without NADPH: 10 μL of 20 mg/mL liver microsomes and 40 μL of ultra-pure H2O were added to the incubations. The final concentration of microsomes was 0.5 mg/mL.
(§5) The reaction was started with the addition of 4 μL of 3, 10, 30 and 100 μM test compound solution or control compound solution at the final concentration of 0.03, 0.1, 0.3 and 1 μM and carried out at 37° C.
(§6) Aliquots of 50 μL were taken from the reaction solution at 0, 15, 30, 45 and 60 min. The reaction was stopped by the addition of 4 volumes of cold acetonitrile with IS (100 nM alprazolam, 200 nM labetalol, 200 nM caffeine and 2 μM ketoprofen). Samples were centrifuged at 3, 220 g for 40 minutes. Aliquot of 100 μL of the supernatant was mixed with 100 μL of ultra-pure H2O and then used for LC-MS/MS analysis. […]
(§7) Peak areas were determined from extracted ion chromatograms. The slope value, k, was determined by linear regression of the natural logarithm of the remaining percentage of the parent drug vs. incubation time curve.
(§8) The in vitro half-life (in vitro t1/2) was determined from the slope value: […]

Series [3] can be described thus: Microsomal stability (human). Type of series: in vitro ADME. To be noted: human liver microsomes 0.5 mg/mL; read-out: Microsomal stability (in vitro CLint), Human. The procedure:
as §1, §2, §3, §4, §5, §6, §7, §8

A short description of series [4]: Microsomal stability (dog). The format is in vitro ADME. As to conditions: dog liver microsomes 0.5 mg/mL; read-out: Microsomal stability (in vitro CLint), Dog. As to the method: as §1, §2, §3, §4, §5, §6, §7, §8
In series [5] the target is T1, β1 adrenergic receptor (Homo sapiens, UniProt P08588).
T1 construct: expressed in transfected cells
T1 sequence (P08588 whole entry): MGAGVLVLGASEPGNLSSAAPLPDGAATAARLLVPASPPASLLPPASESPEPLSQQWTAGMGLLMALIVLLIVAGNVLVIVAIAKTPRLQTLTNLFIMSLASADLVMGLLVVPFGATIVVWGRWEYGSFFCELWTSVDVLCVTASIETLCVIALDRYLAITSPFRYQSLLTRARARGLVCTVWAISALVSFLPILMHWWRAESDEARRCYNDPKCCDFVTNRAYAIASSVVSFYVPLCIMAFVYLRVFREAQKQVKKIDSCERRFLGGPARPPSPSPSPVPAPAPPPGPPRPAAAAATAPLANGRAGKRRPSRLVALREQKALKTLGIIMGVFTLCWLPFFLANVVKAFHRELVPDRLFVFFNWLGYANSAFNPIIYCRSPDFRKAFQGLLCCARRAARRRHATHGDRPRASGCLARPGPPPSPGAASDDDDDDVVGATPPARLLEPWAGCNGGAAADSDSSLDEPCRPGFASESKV
Kind of series: cAMP Gs dynamic HTRF assay, β1 expressing CHO cells. Type of series: cell-based. The procedure: (§9) cAMP homogeneous time-resolved fluorescence (HTRF). Compound efficacy was determined using the cAMP Gs dynamic HTRF assay (Cisbio, catalog #62AM4PEC) largely following the manufacturer's instructions, also detailed below.
(§10) Compound preparation. […] Standard serial dilution curves were 10-point, 5-fold dilutions starting from a highest concentration of 10 μM. […] Assay plates were centrifuged at 500×g for 10 seconds. Compounds and IBMX were prepared at 2× final dose to compensate for addition of cells.
(§11) Cell preparation. […] Cells were harvested using assay PBS, counted manually by hemocytometer or by an automated cell counter, pelleted by centrifugation (200×g, 5 minutes) and resuspended in 37° C. […]
(§12) HTRF reagent addition, reading and data analysis. […] Plates were centrifuged again at 500×g for 10 seconds, and HTRF was measured using a Tecan Spark plate reader at 50 flashes per well. […] Potency estimates (EC50) were derived from the four-parameter nonlinear regression of the concentration-effect curve and an estimate of relative efficacy was determined by comparing the magnitude of the test compound HTRF signal window (min-max dose) with the signal window of the full agonist control, isoproterenol.

Series [6] deals with T2, β2 adrenergic receptor (Homo sapiens, UniProt P07550).
T2 construct: expressed in transfected cells
T2 sequence (P07550 whole entry): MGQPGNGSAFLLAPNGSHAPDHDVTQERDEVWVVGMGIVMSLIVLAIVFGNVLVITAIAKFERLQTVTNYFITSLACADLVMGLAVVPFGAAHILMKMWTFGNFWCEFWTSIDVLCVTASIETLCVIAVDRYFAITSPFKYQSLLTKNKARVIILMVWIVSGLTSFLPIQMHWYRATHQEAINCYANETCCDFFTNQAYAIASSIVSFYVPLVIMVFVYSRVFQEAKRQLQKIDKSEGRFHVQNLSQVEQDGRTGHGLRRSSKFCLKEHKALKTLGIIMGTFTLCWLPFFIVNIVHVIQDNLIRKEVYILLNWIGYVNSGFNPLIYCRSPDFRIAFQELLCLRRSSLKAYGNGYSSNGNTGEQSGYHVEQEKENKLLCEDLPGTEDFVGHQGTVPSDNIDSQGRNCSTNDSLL
Kind of series: cAMP Gs dynamic HTRF assay, β2 expressing CHO cells. Type of series: cell-based. As to the method: as §9, §10, §11, §12

In series [1], `CC(C)(C)NC[C@H](O)c1cccc(C(F)(F)F)n1` [Compound 03-3] displayed an AUClast of 546 ng·h/mL. The molecule also displayed a Vss_obs in series [1] of 2.92 L/kg. For the same molecule, the intrinsic metabolic clearance (microsomal CLint) was determined as 3.48 µL/min/mg in series [2], 3.49 µL/min/mg in series [3] and 7.99 µL/min/mg in series [4].
In the case of `CC(C)(C)NC[C@H](O)c1cccc(C#N)n1` [Compound 03-5, (S)-6-(2-(tert-butylamino)-1-hydroxyethyl)picolinonitrile], the Vss_obs in series [1] is recorded as 1.89 L/kg. For the same molecule, the figures for the intrinsic clearance (microsomal CLint) in series [2], in series [3] and in series [4] were 2.53 µL/min/mg, 2.96 µL/min/mg and 4.32 µL/min/mg, respectively.
In the case of `COc1ccc(C[C@@H](C)NC[C@H](O)c2ccc(C3CC3)nc2C)cc1` [Compound 03-269], the half-maximal effective concentration (EC50) in series [5] is 0.01 to 0.1 µM; in series [6], below 0.01 µM.
